The results in this text go back to PMC11339798, “Dual inhibitors of Pseudomonas aeruginosa virulence factors LecA and LasB” (Chemical Science, 2024).

Data set [1] is described as follows: Disulfide formation assay: thiol stability in P. aeruginosa culture supernatant (LC-MS). The format is in vitro ADME. Particulars: Pseudomonas aeruginosa, pH 7.4, P. aeruginosa culture supernatant, 37 °C, read-out: thiol half-life (conversion into disulfide). An excerpt:
Disulfide formation in the presence of P. aeruginosa culture supernatant was studied for the two inhibitors 11 and 12 and analyzed by liquid chromatography-mass spectrometry (LC-MS) (Fig. 3B). Disulfides 26 and 27 were synthesized via oxidation with H2O2 in DMSO/H2O and used as reference compounds for the stability assay (Fig. 3A). […] The separation of those two peaks of the benzylated derivative 26 using preparative HPLC gave 26a and 26b (m/z of 901.28, Fig. S1 ^†).
In the presence of the bacterial culture supernatant of P. aeruginosa, the conversion of thiols 11 and 12 into the corresponding disulfides 26 and 27 was monitored at 37 °C and thiol half-lives of 48 min for 11 and 70 min for 12 were determined (Fig. 3B).
Disulfide formation assay
The stability of two thiols 11 and 12 and their ability to form the corresponding disulfides was analyzed by HPLC-MS. […] Samples were drawn over 4.5 hours and analyzed by LC-MS using a RP-18 column 100/2 Nucleoshell RP18plus, 2.7 μm from Macherey-Nagel, Germany (H2O/MeCN + 0.1% formic acid, 15 – 55% MeCN, retention time (t R) 5.8 min (11 or 12), 6.1 min and 6.3 min (disulfide products 26 or 27) on a Thermo Dionex Ultimate 3000 HPLC coupled to a Bruker amaZon SL mass spectrometer, with UV detection at 254 nm). Thiol half-lives were determined by analysis of the obtained graphs and values of 80 min for 11 and 46 min for 12 were obtained […]

The test system of data set [2] is A549 cells. Kind of data set: Inhibition of LasB-dependent cytotoxicity of P. aeruginosa PAO1 culture supernatant on A549 cells (MTT). Particulars: for A549 cell viability under PAO1 culture supernatant: 10% (v/v) PAO1 supernatant. The format is cell-based, human. As for the experimental part:
Next, we set out to analyze the ability of the dual inhibitor 12 and the individual treatment or combination of galactoside 1 and thiol 2 to reduce LasB-dependent cytotoxicity from P. aeruginosa PAO1 culture supernatant on A549 cells. None of the investigated compounds influenced A549 cell viability at 100 μM in the absence of bacterial culture supernatant (Fig. S4 ^†). […]
In vitro evaluation of 12 and a combination of 1 and 2 using P. aeruginosa culture supernatant and A549 cells in a cell viability assay
The A549 cell line, derived from human lung adenocarcinoma, was grown in Dulbecco's Modified Eagle Medium (DMEM) supplemented with 10% Fetal Bovine Serum (FBS) and 1% penicillin-streptomycin. The cells were cultured following standard protocols for cell […]
To prepare the bacterial culture supernatant, individual flasks containing 15 mL of lysogeny broth (LB) culture medium were inoculated with PAO1 or PAO1 ΔlasB strains. Culture flasks were placed on a shaker and incubated at 37 °C and 180 rpm overnight for 18 hours. Following incubation, the bacterial cultures were subjected to centrifugation at 4 °C and 5000 rpm for […]
10 min, facilitating the separation of bacterial cells from the supernatant. The latter was filtered through a 0.22 µm sterile filter and stored at –80 °C until further use.
In a flat bottom 96-well plate (Corning™ Costar™), each well was seeded with 2.5–3.5*10 3 cells in 100 µL DMEM/FCS and then incubated at a temperature of 37 °C with 5% CO2 for 24 hours. Then, compounds 12 and 1 combined with 2 in concentrations of 100 µM, 10 µM, and 1 µM were mixed with 10% (v/v) of culture supernatant of P. aeruginosa PAO1 (DSM 22644, ATCC 15692) in DMEM/FCS. To minimize the potential negative effect of DMSO, the compound was initially dissolved in 99.9% DMSO, and a final assay concentration of 0.5% DMSO was applied. Additionally, the cells were exposed to 10% (v/v) PAO1 ΔlasB culture supernatant to analyze the effect caused by LasB, while DMEM/FCS without any treatment served as a control. The plates were then incubated at 37 °C with 5% CO2 for 24 hours before conducting the MTT assay.
To assess cell viability, the medium in the well plates was aspirated and a single wash was performed using 100 µL of phosphate buffered saline, pH 7.4 (PBS). A solution of 5 mg MTT (3-(4,5-dimethylthiazol-2-yl)-2,5-diphenyl tetrazolium bromide) per mL PBS was prepared and diluted to a concentration of 10% (v/v) in DMEM/FCS. Subsequently, 100 µL of this MTT solution was added to each well, and the plates were incubated at 37 °C for 3 hours with 5%
CO2. After incubation, the MTT solution was carefully removed, and the formazan crystals were dissolved by adding 150 µL of lysis solution (250 mL DMSO, 25 g SDS, and 1.25 mL AcOH) to each well. The plates were then incubated for an additional 30 min at 37 °C and then, the UV absorbance was measured using a PHERAstar microplate reader. The test samples were read at a wavelength of 550 nm, while the blank was read at 620 nm. At last, the data were statistically analyzed and presented graphically using GraphPad Prism 9 (Figure S4 and S5).
Evaluation of compounds 1, 2 and 12 in inhibiting LecA adhesion to A549 cells via […]
The A549 cell line were cultured following the protocols for cell maintenance described above.
In a flat-bottom cell culture black 96-well plate (Greiner Bio-One, #Cat 655090) each well was seeded with 1*104 cells in 100 µL DMEM/FCS and subsequently, incubated overnight at 37 °C with 5% CO2. […]

`O=C(Nc1ccc(S[C@@H]2O[C@H](CO)[C@H](O)[C@H](O)[C@H]2O)cc1)C(S)Cc1ccccc1` (stereo partly drawn) [Compound 11]: in data set [1], the half-life at 1.25 mM stood at 1.33 h.

Turning to `CC(C)CC(S)C(=O)Nc1ccc(S[C@@H]2O[C@H](CO)[C@H](O)[C@H](O)[C@H]2O)cc1` (stereo partly drawn) [Compound 12], the half-life at 1.25 mM in data set [1] was found to be 0.767 h. Further, the “A549 cell viability under PAO1 culture supernatant” value in data set [2] (1 μM compound) was “statistically significant beneficial effect on cell viability”; in data set [2] (10 μM compound) it was “increase in cell viability compared to the combination of the individual LasB (2) and LecA (1) inhibitors”; in data set [2] (100 μM compound), “increase in cell viability compared to the combination of the individual LasB (2) and LecA (1) inhibitors”. Moreover, in data set [2] (100 μM compound, compared with LasB-deficient strain control), the “cytotoxicity of PAO1 culture supernatant in presence of compound” value is “reached that of the LasB-deficient strain”.
